Reference: patent US10100011B2, “Pentadienoyl piperidine derivative and use thereof” (Industry-Academic Cooperation Foundation, Yonsei University, priority 2014, dated 2018)

What was measured:
Type in all cases: in vivo, mouse
C57BL/6J mice [1] = test: Liver weight, liver tissue lipid concentrations and hepatic function indicators in blood of mice fed high-fat diet; conditions: about 0.05% compound in high-fat diet, 10 weeks
Procedure: (§1) An obesity induction diet used in this experiment was a high-fat diet (HFD: 40% fat calories, 17 g of lard+3% corn oil/100 g diet), and the compositions of diets including the LJ-2501, LJ-2488, LJ-2495, LJ-2496 compounds were identical to that of HFD, except that each of the compounds was included in an amount of about 0.05% (Table 2). As a control drug, an anti-obesity drug, sibutramine (Sibut), was added in an amount of about 0.01% to the high-fat diet and a normal diet group (Chow) was fed with commercial rodent chow.
(§2) 5-week old 40 male C57BL/6J mice (Orient Bio., Korea) were fed with hard feed and accommodated in a laboratory environment for one week. Subsequently, in accordance with a randomized block method, the mice were randomly grouped into a normal diet group, a high-fat diet control group, two experimental substance groups, and […] and raised for a total of 10 weeks (n=8/group). Diets were supplied with water between 10 am and 11 am every day. An intake amount was measured every day and the body weights of the mice were measured every week. To prevent temporal weight change due to feed intake, feedboxes were removed and, after two hours, the body weights were measured. The experimental animals were fasted for 12 hours or more and then anesthetized with diethyl ether, followed by collecting blood, liver, and visceral adipose tissues (epididymal fat, perirenal fat, mesenteric fat, and retroperitoneal fat). The collected samples were washed with 0.1 M phosphate buffered saline (pH 7.4) and then weighed. Blood samples collected from abdominal aortas were centrifuged at 1000×g for 15 minutes, thereby separating plasma.
Lipid components were extracted from liver tissue in accordance with the method by Folch, et al. (Folch J, Lees M, Sloane Stanley G H. A simple method for the isolation and purification of total lipids from animal tissues. J Biol Chem. 1957; 226:497-509). In particular, 1 mL of distilled water was added to 0.25 g of a liver tissue sample and then homogenized by means of a Polytron homogenizer (IKA-WERKE GmbH & Co., Ultra-Turrax, Staufen, Germany). To the homogenized solution, 5 mL of a solution including chloroform and methanol (mixed in a ratio of 2:1, v/v) was added, followed by uniformly mixing. Subsequently, centrifugation was carried out at 1000×g for 10 minutes and a lower solution was separated. To a formed supernatant, 2 mL of a mixture including chloroform and methanol (mixed in a ratio of 2:1, v/v) was added, followed by repeating the same procedure. As a result, lipid components were completely isolated from the liver samples. To an obtained lower solution, 3 mL of a mixture including chloroform, methanol, and 0.05% CaCl2 (mixed in a ratio of 3:48:47, v/v/v) was added, followed by mixing for one minute. Subsequently, centrifugation was carried out at 1000×g for 10 minutes. A final lower solution was collected and completely dried with a nitrogen gas. Subsequently, the dried lipid was dissolved in 1 mL of methanol and used for lipid component analysis. The concentrations of neutral fat and cholesterol in the lipid extracts extracted from the liver tissue were measured using the same commercial lipid analysis kit (Bio Clinical System) as that used in the plasma analysis.
Glutamate oxaloacetate transferase (GOT) and glutamate pyruvate transferase (GPT) activity in serum during fasting were measured by means of an automatic biochemical analyzer (Express Plus, Chiron Diagnostics Co., USA). A kit for analysis was purchased from Bayer (Tarrytown, N.Y., USA).

C57BL/6J mice [2] = test: Body weight and visceral fat weight in mice fed high-fat diet; conditions: about 0.05% compound in high-fat diet, 10 weeks
Procedure: as §1, §2

[3] = test system: genes related to lipogenesis and AMPK in liver tissue; test: Gene (RT-PCR) and protein (Western blotting) expression in liver tissue of mice; conditions: compound in high-fat diet, pattern similar to Chow group
Procedure: 1 ml of a TRIzol solution per 0.1 g of epididymal fat tissue was added to the pulverized tissue, followed by centrifuging at 4° C. and 12,000×g for 10 minutes. A supernatant was transferred into a new tube and then 200 μl of chloroform was added thereto, followed by vortexing. This process was repeated twice and then a supernatant was transferred into a new tube. Subsequently, isopropanol and the supernatant were mixed in a ratio of 1:1 and strongly shook ten times, followed by standing at room temperature for 10 minutes. Subsequently, centrifugation was carried out at 12,000×g and 4° C. for 10 minutes, followed by removing a supernatant and adding 1 ml of 70% ethanol to the remaining precipitate. Subsequently, centrifugation was carried out at 7,500×g and 4° C. for five minutes. Ethanol was removed and then the tube containing an RNA precipitate was dried at room temperature for five minutes. […] The concentrations of the extracted RNA samples were measured at wavelengths of 260 nm and 280 nm by means of a UV/VIS spectrophotometer (Beckman Coulter, DU730). […]
A predetermined amount of visceral fat or liver tissue was homogenized with liquid nitrogen and a lysis buffer in a mortar and then centrifuged at 13,000 rpm and 4° C. for 20 minutes. Subsequently, a middle layer was collected and subjected to protein quantification according to the Bradford method. […]

C57BL/6J mice [4] = test: Plasma lipid concentrations in mice fed high-fat diet; conditions: about 0.05% compound in high-fat diet, 10 weeks
Procedure: as §1, §2
Using the aforementioned experimental animals raised for 10 weeks, the concentrations of a total of cholesterol, neutral fat, and glucose in plasma and lipid components in liver tissue were measured as follows. The concentrations of a total of cholesterol, neutral fat, and free fatty acid in plasma were respectively measured twice using a commercial measurement kit (Bio Clinical System).

Q: With `CSc1ccc(/C=C/C=C/C(=O)N2CCCCC2)cc1` [LJ-2501, (2E,4E)-5-(4-(methylthio)phenyl)-1-(piperine-1-yl)penta-2,4-diene-1-one] as the molecule, how does the “hepatic function indexes (ALT, AST) in the blood, reduction compared to HFD” value (C57BL/6J mice [1]) read?
A: 60-65%

Q: What about the “liver tissue cholesterol concentration, reduction compared to HFD” value (C57BL/6J mice [1]) of the same molecule?
A: 53%

Q: And the “liver tissue free fatty acid concentration, reduction compared to HFD” value (C57BL/6J mice [1])?
A: 77%

Q: What about the “liver tissue neutral fat concentration, reduction compared to HFD” value (C57BL/6J mice [1]) of the same molecule?
A: 35%

Q: And the “liver weight, reduction compared to high-fat diet control group” value (C57BL/6J mice [1])?
A: 41%

Q: What about the “size of the liver compared to HFD group (photograph)” value (C57BL/6J mice [1]) of the same molecule?
A: relatively small

Q: And the “cumulative weight gain, reduction compared to high-fat diet control group (HFD)” value (C57BL/6J mice [2])?
A: 60%

Q: And the “diet intake amount compared to HFD control group” value (C57BL/6J mice [2])?
A: not greatly different

Q: What about the “epididymal fat, perirenal fat, mesenteric fat and retroperitoneal fat weights compared to HFD (in words)” value (C57BL/6J mice [2]) of the same molecule?
A: significant reduction

Q: What about the “total weight of visceral fats (four fat types), reduction compared to HFD” value (C57BL/6J mice [2]) of the same molecule?
A: 72%

Q: What about the “visceral fat amount in abdominal section image compared to HFD (naked eye)” value (C57BL/6J mice [2]) of the same molecule?
A: remarkably reduced

Q: And the “HFD-caused increase of expression of downstream genes of AMPK (LXRα, SREBP-1c, LPL, FAS, ACC) in liver tissue” value ([3]; RT-PCR)?
A: reversed

Q: What about the “HFD-caused reduction of AMPK phosphorylation in liver tissue” value ([3]; Western blotting) of the same molecule?
A: reversed

Q: And the “plasma LDL+VLDL cholesterol concentration, reduction compared to HFD” value (C57BL/6J mice [4])?
A: 27%

Q: What about the “plasma free fatty acid concentration, reduction compared to HFD” value (C57BL/6J mice [4]) of the same molecule?
A: 69%

Q: And the “plasma neutral fat concentration, reduction compared to HFD” value (C57BL/6J mice [4])?
A: 34%

Q: What about the “plasma total cholesterol concentration, reduction compared to HFD” value (C57BL/6J mice [4]) of the same molecule?
A: 35%
